“Also recorded” adds a separate entry of the source.
Tests used:
HER2 (pY1248) in SKBR3 = biological target: T1, HER2 (pY1248) in SKBR3 (Homo sapiens, UniProt P04626); assay: HER2 activation (pY1248-HER2) in SKBR3 cells, western/dot blot; type: cell-based; set-up: Inhibition of HER2 activation / HER2 inhibition, %: concentration or dose not given beside the values
T1 construct: host or cells: SKBR3

[1] = biological target: T2, JMHER2 (peptide derived from the cytosolic juxtamembrane sequence of HER2) (Homo sapiens, UniProt P04626); assay: Surface plasmon resonance binding to immobilized HER2 juxtamembrane peptide; settings: analyte 5 or 10 μM, 60 s injection
T2 construct: purchased Proteogenix
Procedure: Interaction was performed on a BIAcore T200 instrument BIAcore (Cytiva Life Sciences, Marlborough, MA, USA); GE Healthcare (Little Chalfont, UK). […] Ebselen or ebselen oxide was used as an analyte and injected at 5 or 10 μM at a flow rate of 25 μL·min^−1 for 60 s.

[2] = set-up: method as in PMID 23299882; settings: cited from earlier work
[3] = test system: main protease of SARS‐CoV‐2; set-up: method as in PMID 33120196; settings: cited from earlier work
[4] = set-up: method as in PMID 34299505; settings: whatever the administered doses; cited from earlier work
[5] = set-up: method as in PMID 11546910; settings: after intravenous injection; cited from earlier work
[6] = biological target: T3, JMHER2/FERME interaction (biot-JMHER2 peptide and GST-FERME, N-terminal FERM domain of ezrin) (Homo sapiens, UniProt P04626); assay: AlphaScreen competition of HER2 juxtamembrane peptide / ezrin FERM domain interaction; type: binding; settings: AlphaScreen, 20 h
T3 construct: purchased Proteogenix
Procedure: Biotinylated peptide derived from HER2 cytosolic juxtamembrane region (JMHER2, […] ) has been synthesized by Proteogenix (Schiltigheim, France). The binding reaction was described previously. Briefly, white 384‐well Optiplates (PerkinElmer, Whalham, MA, USA) were used to prepare GST‐FERME and biotinylated peptide in a binding buffer (PBS, pH 7.4, 5 mM MgCl2, and 0.02% CHAPS). GST‐FERME was incubated with biotinylated‐HER2 for 30 min at room temperature. AlphaScreen® Streptavidin Donor beads (20 μg·mL^−1) and Glutathione AlphaLISA® Acceptor Beads (20 μg·mL^−1) were added to the wells for overnight incubation in the dark and at room temperature. Light signal was detected with the EnVision® multilabel plate reader (PerkinElmer).
Ebselen came out as an interesting hit. Ebselen is a synthetic organoselenium compound with the anti‐inflammatory and antioxidant property that has been evaluated in clinical trials for ischemic stroke and acute hearing loss. However, in vivo, ebselen rapidly reacts with peroxynitrite to form ebselen oxide. […] In addition, using surface plasmon resonance (SPR), we confirmed that both compounds could directly bind to JMHER2 (Fig. 1E,F). […] The slight decrease in HER2 expression was not significant. To examine whether HER2 inhibition by ebselen oxide was dependent on JMHER2/FERME interaction, we transfected HBMEC cells with a previously described glycoprotein D‐tagged HER2 form mutated on the critical amino acids involved in ERM binding (gD‐HER2‐EBM*).

T1 sequence (P04626 23-1255): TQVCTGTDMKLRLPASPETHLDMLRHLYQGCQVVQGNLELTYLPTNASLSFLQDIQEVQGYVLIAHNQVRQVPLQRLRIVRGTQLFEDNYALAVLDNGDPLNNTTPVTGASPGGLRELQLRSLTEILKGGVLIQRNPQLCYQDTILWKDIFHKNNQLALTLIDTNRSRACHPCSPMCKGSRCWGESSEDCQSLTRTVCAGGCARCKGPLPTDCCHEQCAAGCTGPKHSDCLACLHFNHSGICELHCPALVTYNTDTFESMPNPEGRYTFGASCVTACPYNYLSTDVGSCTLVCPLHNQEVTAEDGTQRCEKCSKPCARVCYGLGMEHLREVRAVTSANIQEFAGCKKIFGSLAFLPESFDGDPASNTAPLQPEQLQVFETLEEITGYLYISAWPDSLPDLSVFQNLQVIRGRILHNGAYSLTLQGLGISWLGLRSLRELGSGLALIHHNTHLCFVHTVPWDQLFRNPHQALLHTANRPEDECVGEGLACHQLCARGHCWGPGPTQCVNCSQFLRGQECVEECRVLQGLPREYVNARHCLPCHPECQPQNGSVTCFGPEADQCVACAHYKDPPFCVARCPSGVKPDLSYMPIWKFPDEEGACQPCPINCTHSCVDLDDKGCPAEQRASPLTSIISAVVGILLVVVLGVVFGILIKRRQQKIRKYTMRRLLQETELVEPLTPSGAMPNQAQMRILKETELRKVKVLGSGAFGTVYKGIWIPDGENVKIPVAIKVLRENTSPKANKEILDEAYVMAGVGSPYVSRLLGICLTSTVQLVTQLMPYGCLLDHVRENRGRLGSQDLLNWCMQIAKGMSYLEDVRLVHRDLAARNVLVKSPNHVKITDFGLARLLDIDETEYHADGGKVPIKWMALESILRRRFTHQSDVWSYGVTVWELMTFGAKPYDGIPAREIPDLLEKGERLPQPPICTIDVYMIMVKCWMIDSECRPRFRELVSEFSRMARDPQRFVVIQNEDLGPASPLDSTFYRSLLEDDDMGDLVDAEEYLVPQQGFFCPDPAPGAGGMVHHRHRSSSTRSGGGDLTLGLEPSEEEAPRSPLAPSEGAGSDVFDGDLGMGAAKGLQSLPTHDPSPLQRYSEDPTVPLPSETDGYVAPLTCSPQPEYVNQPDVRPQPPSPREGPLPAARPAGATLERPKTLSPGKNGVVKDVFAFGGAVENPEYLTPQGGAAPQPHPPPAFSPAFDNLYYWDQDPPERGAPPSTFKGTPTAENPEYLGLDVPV

O=c1c2ccccc2[se]n1-c1ccccc1 [Ebselen]
Inhibition of HER2 activation/activity (HER2 (pY1248) in SKBR3; HER2+ breast cancer cells (SKBR3 in Fig. S1)): poorly inhibited; also recorded: did not inhibit
HER2 inhibition, % (HER2 (pY1248) in SKBR3; Table 1, HER2+ breast cancer cells (ebselen oxide value equals SKBR3 48 h)): 14.4%
EC50 (HER2 (pY1248) in SKBR3; Table 1, HER2+ breast cancer cells (ebselen oxide value equals SKBR3 48 h), read-out: EC50, μM (HER2 inhibition)): 51.3 µM
Direct binding to JMHER2 (SPR) [1]: directly bind
Blood–brain barrier permeation [2]: blood–brain barrier permeant
Inhibition of the main protease of SARS-CoV-2 [3]: highly active
Tolerability in vivo [4]: always well tolerated
Half-life [5]: 1 to 3 h
Time to maximum serum concentration [5]: 1 h
IC50 [6]: 0.044 µM
EC50 ([6]; read-out: EC50, μM (inhibition of HER2-FERME interaction)): 0.044 µM

Source: paper PMC10552892, “Ebselen oxide and derivatives are new allosteric HER2 inhibitors for HER2‐positive cancers” (Molecular Oncology, 2023)
